In PubChem BioAssay (NCI):
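Grown in 96-well plates, cells were treated for 48 hours with each compound at five concentrations. Insufficient inhibition: endpoint recorded as highest concentration tested. GI50 marks 50% less growth. TGI is the concentration that stops growth completely.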

What was measured:
Test in all cases: growth of human tumour cells (NCI), 48 h
[1] = system: A549 NSCLC
[2] = system: OVCAR-5 ovarian
[3] = system: RPMI-8226 leukemia
[4] = system: SK-MEL-28 melanoma
[5] = system: T-47D breast
[6] = system: SF-295 CNS
[7] = system: MDA-MB-435
[8] = system: COLO 205 colon
[9] = system: NCI-H226 lung
[10] = system: RXF 393 renal

SMILES: CN(C)Cc1ccc(NC(=O)c2cncc(C#Cc3cnc(N)c4ncccc34)c2)cc1F
- GI50 [1]: 2.57 µM
- TGI [1]: 7.11 µM
- GI50 [2]: 2.08 µM
- TGI [2]: 3.92 µM
- GI50 [3]: 1.97 µM
- TGI [3]: 4.75 µM
- GI50 [4]: 1.85 µM
- TGI [4]: 3.46 µM
- GI50 [5]: 10.3 µM
- TGI [5]: 54.7 µM
- GI50 [6]: 10.6 µM
- TGI [6]: 26.5 µM
- GI50 [7]: 1.64 µM
- TGI [7]: 3.14 µM

SMILES: COc1ccc(S(=O)(=O)Nc2c(/C=C\c3cc(OC)c(OC)c(OC)c3)ccc(OC)c2O)cc1
- GI50 [8]: 0.406 µM
- TGI [8]: 1.91 µM
- GI50 [1]: 0.0459 µM
- TGI [1]: > 100 µM
- GI50 [2]: 1.02 µM
- TGI [2]: > 100 µM
- GI50 [9]: 41.3 µM
- TGI [9]: > 100 µM
- GI50 [10]: 0.0318 µM
- TGI [10]: 21.7 µM
- GI50 [3]: 0.0469 µM
- TGI [3]: 22.4 µM
- GI50 [6]: 0.0339 µM
- TGI [6]: > 100 µM
- GI50 [7]: 0.019 µM
- TGI [7]: 0.0484 µM

SMILES: CC1C=CC(C(N)C(=O)O)O1 (centres undefined)
- TGI [8]: > 100 µM
- TGI [1]: > 100 µM
- TGI [2]: > 100 µM
- TGI [9]: > 100 µM
- TGI [10]: > 100 µM
- TGI [3]: > 100 µM
- TGI [4]: > 100 µM
- TGI [6]: > 100 µM

SMILES: CCOC(=O)c1[nH]c2cc(OC)c(OC)cc2c1CN(C)C
- TGI [1]: > 100 µM
- TGI [2]: > 100 µM
- TGI [9]: > 100 µM
- TGI [10]: > 100 µM
- TGI [3]: > 100 µM
- TGI [4]: > 100 µM
- TGI [6]: > 100 µM

SMILES: CC1=C(C(=O)Nc2ccc(F)c(Cl)c2)C(c2cccc(Oc3ccccc3)c2)NC(=S)N1 (centres undefined)
- GI50 [8]: 17.9 µM
- TGI [8]: > 50 µM
- GI50 [1]: 13.7 µM
- TGI [1]: > 50 µM
- GI50 [2]: 19.2 µM
- TGI [2]: 34.8 µM
- GI50 [10]: 6.79 µM
- TGI [10]: 15.6 µM
- GI50 [3]: 16.8 µM
- TGI [3]: > 50 µM
- GI50 [4]: 8.89 µM
- TGI [4]: 25.9 µM
- GI50 [5]: 40.4 µM
- TGI [5]: > 50 µM
- GI50 [6]: 15.6 µM
- TGI [6]: > 50 µM
- GI50 [7]: 11.9 µM
- TGI [7]: 33.8 µM

SMILES: CCN1C(=O)N(CC)C2C1NN=c1s/c(=C3\C(=O)N(C4CCCC4)c4ccccc43)c(=O)n12 (centres undefined)
- GI50 [8]: 1.89 µM
- TGI [8]: 12.2 µM
- GI50 [1]: 1.55 µM
- TGI [1]: > 100 µM
- GI50 [2]: 3.75 µM
- TGI [2]: > 100 µM
- GI50 [9]: 1.47 µM
- TGI [9]: 5.54 µM
- GI50 [10]: 0.603 µM
- TGI [10]: 3.2 µM
- GI50 [3]: 1.91 µM
- TGI [3]: 7.31 µM
- GI50 [4]: 1.18 µM
- TGI [4]: > 100 µM
- GI50 [6]: 1.6 µM
- TGI [6]: 14.4 µM
- GI50 [7]: 0.242 µM
- TGI [7]: 0.661 µM

SMILES: COc1ccc(-c2cn(-c3ccc(OC)c(OC)c3)c(=O)[nH]2)cc1
- GI50 [8]: > 100 µM
- TGI [8]: > 100 µM
- GI50 [1]: > 100 µM
- TGI [1]: > 100 µM
- GI50 [2]: > 100 µM
- TGI [2]: > 100 µM
- GI50 [9]: > 100 µM
- TGI [9]: > 100 µM
- GI50 [3]: > 100 µM
- TGI [3]: > 100 µM
- GI50 [4]: > 100 µM
- TGI [4]: > 100 µM
- GI50 [5]: 51.5 µM
- TGI [5]: > 100 µM
- GI50 [6]: > 100 µM
- TGI [6]: > 100 µM
- GI50 [7]: 50.2 µM
- TGI [7]: > 100 µM
